Test results reported in patent publication US8415305B2, “Use of cyclic depsipeptides to inhibit kallikrein 7” (Novartis AG, priority 2007, dated 2013).

Molecular target: human kallikrein 7 (hKallikrein7) (Homo sapiens, UniProt P49862)
Experiment: Kallikrein 7 fluorescence-quenched substrate enzymatic assay (IC50)
Assay type: biochemical
Protocol: An “inhibitor” is a cyclic depsipeptide that inhibits an enzymatic reaction with a measure IC50 of less than […], for instance 50 μM, 30 μM, 20 μM or 10 μM. Particularly preferred are cyclic depsipeptides with an IC50 of less than 30 μM for human kallikrein 7, for instance cyclic depsipeptides with an IC50 of less than 10 μM, 1 μM, 100 nM, 50 nM, 40 nM, 30 nM, 20 nM, 10 nM, or less. IC50 for human kallikrein can be measured using the fluorescence-quenched substrate Ac-Glu-Asp(EDANS)-Lys-Pro-lle-Leu-Phe^Arg-Leu-Gly-Lys(DABCYL)-Glu-NH2 (SEQ ID NO 1) (where ^ indicates the scissile bond, identified by MS analysis) which can be purchased from Biosyntan (Berlin, Germany). Enzymatic reactions are conducted in 50 mM sodium citrate buffer at pH 5.6 containing 150 mM NaCl and 0.05% (w/v) CHAPS. For the determination of IC50 values the assay is performed at room temperature in 384-well plates. All final assay volumes are 30 μl. Test compounds are dissolved in 90% (v/v) DMSO/water and diluted in water (containing 0.05% (w/v) CHAPS) to 3-times the desired assay concentration. The 11 final compound concentrations are: 0.3 nM, 1 nM, 3 nM, 10 nM, 30 nM, 100 nM, 300 nM, 1 μM, 3 μM, 10 μM and 30 μM. For each assay, 10 μl water/CHAPS (±test compound) are added per well, followed by 10 μl protease solution (diluted with 1.5× assay buffer). The protease concentration in final assay solution is 0.2 nM (according to the enzyme concentrations determined by the Bradford method). After 1 hour of incubation at room temperature, the reaction is started by addition of 10 μl substrate solution (substrate dissolved in 1.5× assay buffer, final concentration is 2 μM). The effect of the compound on the enzymatic activity is obtained from the linear progress curves and determined from two readings, the first one taken directly after the addition of substrate (t=0 min) and the second one after 1 hour (t=60 min). The IC50 value is calculated from the plot of percentage of inhibition vs. inhibitor concentration using non-linear regression analysis software (XLfit, Vers. 4.0; ID Business Solution Ltd., Guildford, Surrey, UK).
The fluorescence-quenched substrate Ac-Glu-Asp(EDANS)-Lys-Pro-lle-Leu-Phe^Arg-Leu-Gly-Lys(DABCYL)-Glu-NH2 (SEQ ID NO1) (where ^ indicates the scissile bond, identified by MS analysis) is purchased from Biosyntan (Berlin, Germany) and kept as a 5 mM stock solution in DMSO at −20° C. All other chemicals are of analytical grade. […]
For fluorescence intensity (FI) measurements an Ultra Evolution reader (TECAN, Maennedorf, Switzerland) is used. The instrument is equipped with a combination of a 350 nm (20 nm bandwidth) and a 500 nm (25 nm bandwidth) bandpath filter for fluorescence excitation and emission acquisition, respectively. […]

human kallikrein 7 (hKallikrein7), sequence (P49862 30-253): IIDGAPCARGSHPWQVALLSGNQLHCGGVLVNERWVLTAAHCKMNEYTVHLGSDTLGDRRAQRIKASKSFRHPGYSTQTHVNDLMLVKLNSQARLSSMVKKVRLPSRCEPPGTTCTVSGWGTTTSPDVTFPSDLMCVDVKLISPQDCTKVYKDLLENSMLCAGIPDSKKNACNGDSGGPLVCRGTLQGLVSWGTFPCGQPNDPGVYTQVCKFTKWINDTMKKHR

In order of rising IC50:
1. CCC(C)C(=O)N[C@@H](CCC(N)=O)C(=O)NC1C(=O)N[C@@H](CC(C)C)C(=O)NC2CC[C@H](O)N(C2=O)[C@@H](C(C)CC)C(=O)N(C)[C@@H](Cc2ccc(O)cc2)C(=O)N[C@@H](C(C)CC)C(=O)O[C@@H]1C (stereo partly shown) [formula (III)]  0.4 nM
2. CCC(C)[C@@H]1NC(=O)[C@H](Cc2ccc(O)cc2)N(C)C(=O)[C@H](C(C)CC)N2C(=O)C(CC[C@@H]2O)NC(=O)[C@H](CC(C)C)NC(=O)[C@H](NC(=O)[C@H](CCC(N)=O)NC(=O)C(C)C)[C@@H](C)OC1=O (stereo partly shown) [formula (II)]  1 nM
3. CCC(C)C(=O)N[C@@H](CCC(N)=O)C(=O)N[C@H]1C(=O)N[C@@H](CC(C)C)C(=O)N[C@H]2CC=CN(C2=O)[C@@H](C(C)CC)C(=O)N(C)[C@@H](Cc2ccc(O)cc2)C(=O)N[C@@H](C(C)CC)C(=O)O[C@@H]1C (stereo partly shown) [formula (IV)]  5 nM
4. CCC(C)[C@@H]1NC(=O)[C@H](Cc2ccc(O)cc2)N(C)C(=O)[C@H](C(C)CC)N2C=CC[C@H](NC(=O)[C@H](CC(C)C)NC(=O)[C@H](NC(=O)[C@H](CCC(N)=O)NC(=O)C(C)C)[C@@H](C)OC1=O)C2=O (stereo partly shown) [formula (V)]  6 nM
